Test results reported in patent publication US20240294517A1, “2-[3-[1 [(QUINAZOLIN-4-YL)AMINO]ETHYL]PYRAZIN-2-YL]THIAZOLE-5-CARBONITRILE DERIVATIVES AND SIMILAR COMPOUNDS AS PESTICIDES” (SYNGENTA CROP PROTECTION AG, priority 2021, published 2024).

Columns and labels:
Diabrotica balteata = assay: Activity against Diabrotica balteata (corn root worm), sprayed maize sprouts; format: in vivo; conditions: for mortality at 3.125 ppm: concentration 3.125 ppm; for percent effect (mortality or growth inhibition) at 200 ppm: 96 h, application rate 200 ppm, L2 larvae, 4 days after infestation, read-out: effect in at least one of the two categories (mortality or growth inhibition)
Description: Maize sprouts placed onto an agar layer in 24-well microtiter plates were treated with aqueous test solutions prepared from 10′000 ppm DMSO stock solutions by spraying. After drying, the plates were infested with L2 larvae (6 to 10 per well). The samples were assessed for mortality and growth inhibition in comparison to untreated samples 4 days after infestation.
(§1) Activity of compound P5 according to the preparatory examples and of compound P.118 from WO 21/083936 against Plutella xylostella ([…]) and Diabrotica balteata (Example B2) is summarized in Table B9.

Plutella xylostella = assay: Activity against Plutella xylostella (diamond back moth), artificial diet; format: in vivo; conditions: for mortality at 12.5 ppm: concentration 12.5 ppm; for percent effect (mortality or growth inhibition) at 200 ppm: 192 h, application rate 200 ppm, eggs, 8 days after infestation, read-out: effect in at least one of the two categories (mortality or growth inhibition)
Description: 24-well microtiter plates with artificial diet were treated with aqueous test solutions prepared from 10′000 ppm DMSO stock solutions by pipetting. After drying, Plutella eggs were pipetted through a plastic stencil onto a gel blotting paper and the plate was closed with it. The samples were assessed for mortality and growth inhibition in comparison to untreated samples 8 days after infestation.
as §1

Spodoptera littoralis = assay: Activity against Spodoptera littoralis (Egyptian cotton leaf worm), sprayed cotton leaf discs; format: in vivo; conditions: foliar, 72 h, application rate 200 ppm, L1 larvae, 3 days after infestation
Description: Cotton leaf discs were placed onto agar in 24-well microtiter plates and sprayed with aqueous test solutions prepared from 10′000 ppm DMSO stock solutions. After drying the leaf discs were infested with five L1 larvae. The samples were assessed for mortality, anti-feeding effect, and growth inhibition in comparison to untreated samples 3 days after infestation. Control of Spodoptera littoralis by a test sample is given when at least one of the categories mortality, anti-feedant effect, and growth inhibition is higher than the untreated sample.

Chilo suppressalis = assay: Activity against Chilo suppressalis (striped rice stemborer), artificial diet in 24-well plates; format: in vivo; conditions: 144 h, application rate 200 ppm, L2 larvae, 6 days after infestation
Description: 24-well microtiter plates with artificial diet were treated with aqueous test solutions prepared from 10′000 ppm DMSO stock solutions by pipetting. After drying, the plates were infested with L2 larvae (6-8 per well). The samples were assessed for mortality, anti-feeding effect, and growth inhibition in comparison to untreated samples 6 days after infestation. Control of Chilo suppressalis by a test sample is given when at least one of the categories mortality, anti-feedant effect, and growth inhibition is higher than the untreated sample.

Euschistus heros = assay: Activity against Euschistus heros (neotropical brown stink bug), sprayed soybean leaves; format: in vivo; conditions: 120 h, application rate 200 ppm, N2 nymphs, 5 days after infestation, read-out: effect in at least one of the two categories (mortality or growth inhibition)
Description: Soybean leaves on agar in 24-well microtiter plates were sprayed with aqueous test solutions prepared from 10′000 ppm DMSO stock solutions. After drying the leaves were infested with N2 nymphs. The samples were assessed for mortality and growth inhibition in comparison to untreated samples 5 days after infestation.

melting point	Structure (SMILES)	mortality at 3.125 ppm (Diabrotica balteata)	mortality at 12.5 ppm (Plutella xylostella)	percent control (mortality, anti-feedant effect or growth inhibition) at 200 ppm (Spodoptera littoralis)	percent effect (mortality or growth inhibition) at 200 ppm (Diabrotica balteata)	percent control (mortality, anti-feedant effect or growth inhibition) at 200 ppm (Chilo suppressalis)	percent effect (mortality or growth inhibition) at 200 ppm (Plutella xylostella)	percent effect (mortality or growth inhibition) at 200 ppm (Euschistus heros)
–	CC(Nc1ncnc2c(C(F)(F)F)cc(Cl)cc12)c1nccnc1-c1ccc(C#N)cn1 (stereo not shown) [P.118, reference compound]	0%	0%	–	–	–	–	–
–	CC(Nc1ncnc2c(Br)cc(Br)cc12)c1nccnc1-c1ncc(C#N)s1 (stereo not shown) [P19, 2-[3-[1-[(6,8-dibromoquinazolin-4-yl)amino]ethyl]pyrazin-2-yl]thiazole-5-carbonitrile]	–	–	≥ 80%	≥ 80%	≥ 80%	≥ 80%	–
–	CC(Nc1ncnc2c(C(F)(F)F)cc(C(F)(F)F)cc12)c1nccnc1-c1ncc(C#N)s1 (stereo not shown) [P7, 2-[3-[1-[[6,8-bis(trifluoromethyl)quinazolin-4-yl]amino]ethyl]pyrazin-2-yl]thiazole-5-carbonitrile]	–	–	≥ 80%	≥ 80%	≥ 80%	≥ 80%	–
–	C[C@H](Nc1nc(Cl)nc2c(Br)cc(C(F)(F)F)cc12)c1ncnn1-c1ncc(C#N)s1 [P9, 2-[5-[(1S)-1-[[8-bromo-2-chloro-6-(trifluoromethyl)quinazolin-4-yl]amino]ethyl]-1,2,4-triazol-1-yl]thiazole-5-carbonitrile]	–	–	–	≥ 80%	≥ 80%	≥ 80%	–
–	C[C@@H](c1ncnn1-c1ncc(C#N)s1)N(C)c1ncnc2c(Cl)cc(C(F)(F)F)cc12 [P17, 2-[5-[(1S)-1-[[8-chloro-6-(trifluoromethyl)quinazolin-4-yl]-methyl-amino]ethyl]-1,2,4-triazol-1-yl]thiazole-5-carbonitrile]	–	–	≥ 80%	≥ 80%	≥ 80%	≥ 80%	≥ 80%
–	CC(Nc1nc(=O)[nH]c2c(Br)cc(C(F)(F)F)cc12)c1nccnc1-c1ncc(C#N)s1 (stereo not shown) [P1, 2-[3-[1-[[8-bromo-2-oxo-6-(trifluoromethyl)-1H-quinazolin-4-yl]amino]ethyl]pyrazin-2-yl]thiazole-5-carbonitrile]	–	–	–	≥ 80%	≥ 80%	≥ 80%	–
–	CC(Nc1ncnc2c(C(F)(F)F)cc(C(F)(F)F)cc12)c1nccnc1-c1ncc(Br)s1 (stereo not shown) [P8, N-[1-[3-(5-bromothiazol-2-yl)pyrazin-2-yl]ethyl]-6,8-bis(trifluoromethyl)quinazolin-4-amine]	–	–	–	≥ 80%	≥ 80%	≥ 80%	–
–	CC(Nc1ncnc2c(Cl)cc(C(F)(F)F)cc12)c1nccnc1-c1ncc(C#N)s1 (stereo not shown) [P12, 2-[3-[1-[[8-chloro-6-(trifluoromethyl)quinazolin-4-yl]amino]ethyl]pyrazin-2-yl]thiazole-5-carbonitrile]	–	–	≥ 80%	≥ 80%	≥ 80%	≥ 80%	–
–	CC(Nc1nc(=O)[nH]c2c(Br)cc(C(F)(F)F)cc12)c1nccnc1-c1ncc(Br)s1 (stereo not shown) [P4, 8-bromo-4-[1-[3-(5-bromothiazol-2-yl)pyrazin-2-yl]ethylamino]-6-(trifluoromethyl)-1H-quinazolin-2-one]	–	–	–	≥ 80%	≥ 80%	≥ 80%	–
197 to 199 °C	CC(Nc1nc(Cl)nc2c(Br)cc(C(F)(F)F)cc12)c1nccnc1-c1ncc(Br)s1 (stereo not shown) [P3, 8-bromo-N-[1-[3-(5-bromothiazol-2-yl)pyrazin-2-yl]ethyl]-2-chloro-6-(trifluoromethyl)quinazolin-4-amine]	–	–	–	–	–	–	–
–	CC(Nc1ncnc2c(C(F)(F)F)cc(Cl)cc12)c1nccnc1-c1ncc(Br)s1 (stereo not shown) [P6, N-[1-[3-(5-bromothiazol-2-yl)pyrazin-2-yl]ethyl]-6-chloro-8-(trifluoromethyl)quinazolin-4-amine]	–	–	–	≥ 80%	≥ 80%	–	–
–	CC(Nc1ncnc2c(Cl)cc(C(F)(F)F)cc12)c1nccnc1-c1ncsn1 (stereo not shown) [P18, 8-chloro-N-[1-[3-(1,2,4-thiadiazol-3-yl)pyrazin-2-yl]ethyl]-6-(trifluoromethyl)quinazolin-4-amine]	–	–	–	≥ 80%	–	≥ 80%	–
–	CC(Nc1ncnc2c(C(F)(F)F)cc(Cl)cc12)c1nccnc1-c1ncsn1 (stereo not shown) [P13, 6-chloro-N-[1-[3-(1,2,4-thiadiazol-3-yl)pyrazin-2-yl]ethyl]-8-(trifluoromethyl)quinazolin-4-amine]	–	–	≥ 80%	≥ 80%	–	≥ 80%	–
–	C[C@@H](c1ncnn1-c1ncc(C#N)s1)N(C)c1ncnc2c(C(F)(F)F)cc(Cl)cc12 [P11, 2-[5-[(1S)-1-[[6-chloro-8-(trifluoromethyl)quinazolin-4-yl]-methyl-amino]ethyl]-1,2,4-triazol-1-yl]thiazole-5-carbonitrile]	–	–	≥ 80%	≥ 80%	≥ 80%	≥ 80%	–
–	C[C@H](Nc1nc(=O)[nH]c2c(Br)cc(C(F)(F)F)cc12)c1ncnn1-c1ncc(C#N)s1 [P2, 2-[5-[(1S)-1-[[8-bromo-2-oxo-6-(trifluoromethyl)-1H-quinazolin-4-yl]amino]ethyl]-1,2,4-triazol-1-yl]thiazole-5-carbonitrile]	–	–	≥ 80%	–	≥ 80%	≥ 80%	–
–	CC(Nc1ncnc2c(Br)cc(Br)cc12)c1nccnc1-c1ncsn1 (stereo not shown) [P16, 6,8-dibromo-N-[1-[3-(1,2,4-thiadiazol-3-yl)pyrazin-2-yl]ethyl]quinazolin-4-amine]	–	–	≥ 80%	≥ 80%	–	≥ 80%	–
–	C[C@H](Nc1ncnc2c(C(F)(F)F)cc(Cl)cc12)c1ncnn1-c1ncc(C#N)s1 [P10, 2-[5-[(1S)-1-[[6-chloro-8-(trifluoromethyl)quinazolin-4-yl]amino]ethyl]-1,2,4-triazol-1-yl]thiazole-5-carbonitrile]	–	–	≥ 80%	≥ 80%	≥ 80%	≥ 80%	≥ 80%
–	C[C@H](Nc1ncnc2c(Cl)cc(S(=O)(=O)C(F)(F)F)cc12)c1ncnn1-c1ncc(C#N)s1 [P22, 2-[5-[(1S)-1-[[8-chloro-6-(trifluoromethylsulfonyl)quinazolin-4-yl]amino]ethyl]-1,2,4-triazol-1-yl]thiazole-5-carbonitrile]	–	–	≥ 80%	≥ 80%	≥ 80%	≥ 80%	–
–	CC(Nc1ncnc2c(C(F)(F)F)cc(Cl)cc12)c1nccnc1-c1ncc(C#N)s1 (stereo not shown) [P5, 2-[3-[1-[[6-chloro-8-(trifluoromethyl)quinazolin-4-yl]amino]ethyl]pyrazin-2-yl]thiazole-5-carbonitrile]	100%	50%	≥ 80%	≥ 80%	≥ 80%	≥ 80%	–
